The target of one assay is T1, TSSK3/STK22C (Homo sapiens, UniProt Q96PN8).
T1 sequence (Q96PN8 1-268): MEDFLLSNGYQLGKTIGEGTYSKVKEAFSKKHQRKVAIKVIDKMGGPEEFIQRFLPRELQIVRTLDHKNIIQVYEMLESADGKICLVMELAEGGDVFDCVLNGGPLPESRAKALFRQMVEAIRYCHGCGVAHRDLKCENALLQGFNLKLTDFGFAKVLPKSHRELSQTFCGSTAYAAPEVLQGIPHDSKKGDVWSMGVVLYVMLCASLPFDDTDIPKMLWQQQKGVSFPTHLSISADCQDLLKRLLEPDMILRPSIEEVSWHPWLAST
Nature of the assay: biochemical. To be noted: read-out: % enzyme activity, 1 μM; Run 1, Run 2.

In a further assay the target is PKCa (Homo sapiens, UniProt P17252). Briefly: biochemical. To be noted: read-out: % enzyme activity, 1 μM; Run 1, Run 2.
The next assay has as its target T2, DYRK2 (Homo sapiens, UniProt Q92630).
T2 sequence (Q92630 1-601): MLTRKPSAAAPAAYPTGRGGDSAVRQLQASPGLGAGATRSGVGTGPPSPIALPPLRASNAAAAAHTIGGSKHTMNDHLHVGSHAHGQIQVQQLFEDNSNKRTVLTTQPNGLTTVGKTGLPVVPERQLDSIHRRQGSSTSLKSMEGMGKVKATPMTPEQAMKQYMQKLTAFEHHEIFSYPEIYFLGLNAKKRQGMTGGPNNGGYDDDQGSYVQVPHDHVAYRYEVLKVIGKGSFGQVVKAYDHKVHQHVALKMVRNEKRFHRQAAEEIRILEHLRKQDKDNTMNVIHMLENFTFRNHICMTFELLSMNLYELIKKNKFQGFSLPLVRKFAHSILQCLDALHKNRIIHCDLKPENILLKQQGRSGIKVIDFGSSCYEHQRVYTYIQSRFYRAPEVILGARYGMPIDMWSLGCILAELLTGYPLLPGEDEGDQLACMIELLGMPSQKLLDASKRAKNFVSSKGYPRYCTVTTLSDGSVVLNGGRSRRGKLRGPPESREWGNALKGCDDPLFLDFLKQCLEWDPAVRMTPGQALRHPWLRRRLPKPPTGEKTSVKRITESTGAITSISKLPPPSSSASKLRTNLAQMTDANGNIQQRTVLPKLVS
The settings on record: 1 μM; Run 1, Run 2.

The target of a further assay is STK32C/YANK3 (Homo sapiens, UniProt Q86UX6). The settings on record: 1 μM; Run 1, Run 2.
For a further assay, the target named is EPHA7 (Homo sapiens, UniProt Q15375). Briefly: biochemical. To be noted: read-out: % enzyme activity, 1 μM; Run 1, Run 2.
A further assay addresses FAK/PTK2 (Homo sapiens, UniProt Q05397). Briefly: biochemical. To be noted: read-out: % enzyme activity, 1 μM; Run 1, Run 2.
The target in another assay is PLK2 (Homo sapiens, UniProt Q9NYY3). Briefly: biochemical. The settings on record: read-out: % enzyme activity, 1 μM; Run 1, Run 2.
The target in the next assay is JNK1 (Homo sapiens, UniProt P45983). To be noted: 1 μM; Run 1, Run 2.
Another assay addresses ERK1 (Homo sapiens, UniProt P27361). Nature of the assay: biochemical. The settings on record: read-out: % enzyme activity, 1 μM; Run 1, Run 2.
In the next assay the target is T3, GRK3 (Homo sapiens, UniProt P35626).
T3 sequence (P35626 1-688): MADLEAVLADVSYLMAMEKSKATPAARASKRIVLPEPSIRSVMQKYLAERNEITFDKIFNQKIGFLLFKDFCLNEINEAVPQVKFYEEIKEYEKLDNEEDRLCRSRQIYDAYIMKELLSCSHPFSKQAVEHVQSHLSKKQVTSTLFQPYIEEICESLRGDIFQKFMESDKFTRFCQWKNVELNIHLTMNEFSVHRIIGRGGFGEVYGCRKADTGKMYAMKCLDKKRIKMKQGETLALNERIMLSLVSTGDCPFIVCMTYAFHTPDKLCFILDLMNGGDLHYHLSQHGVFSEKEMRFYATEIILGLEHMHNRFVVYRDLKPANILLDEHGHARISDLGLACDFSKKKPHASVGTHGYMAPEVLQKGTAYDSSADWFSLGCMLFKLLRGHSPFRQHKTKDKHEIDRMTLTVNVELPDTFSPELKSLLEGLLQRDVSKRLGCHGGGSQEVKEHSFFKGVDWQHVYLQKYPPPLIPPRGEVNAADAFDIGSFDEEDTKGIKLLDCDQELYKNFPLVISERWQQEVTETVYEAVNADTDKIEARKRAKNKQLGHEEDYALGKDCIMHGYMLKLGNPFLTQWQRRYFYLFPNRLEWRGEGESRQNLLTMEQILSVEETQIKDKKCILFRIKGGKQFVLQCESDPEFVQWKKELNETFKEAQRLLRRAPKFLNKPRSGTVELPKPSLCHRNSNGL
Briefly: biochemical. The settings on record: read-out: % enzyme activity, 1 μM; Run 1, Run 2.

A further assay addresses BRK (Homo sapiens, UniProt Q13882). Nature of the assay: biochemical. The settings on record: read-out: % enzyme activity, 1 μM; Run 1, Run 2.
The next assay deals with STK16 (Homo sapiens, UniProt O75716). To be noted: 1 μM; Run 1, Run 2.

“And” between values parts separate entries of the source, which are not always exact repeats. Equal entries are not always repeated.

Chain of EPHA7 (Q15375 28-998): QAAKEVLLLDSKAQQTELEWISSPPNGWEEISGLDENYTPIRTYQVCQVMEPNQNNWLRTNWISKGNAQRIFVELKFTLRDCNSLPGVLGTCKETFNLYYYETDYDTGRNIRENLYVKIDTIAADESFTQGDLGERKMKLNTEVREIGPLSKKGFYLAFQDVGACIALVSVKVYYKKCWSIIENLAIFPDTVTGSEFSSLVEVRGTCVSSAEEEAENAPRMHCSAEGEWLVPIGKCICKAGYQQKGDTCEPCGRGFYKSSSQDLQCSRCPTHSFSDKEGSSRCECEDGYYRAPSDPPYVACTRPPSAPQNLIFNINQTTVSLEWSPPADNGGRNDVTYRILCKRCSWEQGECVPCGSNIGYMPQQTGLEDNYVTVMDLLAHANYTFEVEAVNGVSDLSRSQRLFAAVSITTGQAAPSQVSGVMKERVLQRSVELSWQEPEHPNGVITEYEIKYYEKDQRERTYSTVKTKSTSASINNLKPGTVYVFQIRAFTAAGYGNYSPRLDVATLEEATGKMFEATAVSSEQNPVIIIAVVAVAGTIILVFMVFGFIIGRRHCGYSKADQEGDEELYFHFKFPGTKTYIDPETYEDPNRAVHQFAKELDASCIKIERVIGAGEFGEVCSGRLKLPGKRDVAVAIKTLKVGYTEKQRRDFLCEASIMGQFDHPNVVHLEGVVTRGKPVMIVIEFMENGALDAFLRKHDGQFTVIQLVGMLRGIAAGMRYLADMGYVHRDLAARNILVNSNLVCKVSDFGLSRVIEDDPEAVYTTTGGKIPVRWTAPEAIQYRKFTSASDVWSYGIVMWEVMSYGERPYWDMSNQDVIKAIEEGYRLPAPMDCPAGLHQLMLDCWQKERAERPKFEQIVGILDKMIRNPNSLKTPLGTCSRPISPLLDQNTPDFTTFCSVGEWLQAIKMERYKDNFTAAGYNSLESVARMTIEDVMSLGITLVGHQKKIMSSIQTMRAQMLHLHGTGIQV
Chain of STK32C/YANK3 (Q86UX6 whole entry): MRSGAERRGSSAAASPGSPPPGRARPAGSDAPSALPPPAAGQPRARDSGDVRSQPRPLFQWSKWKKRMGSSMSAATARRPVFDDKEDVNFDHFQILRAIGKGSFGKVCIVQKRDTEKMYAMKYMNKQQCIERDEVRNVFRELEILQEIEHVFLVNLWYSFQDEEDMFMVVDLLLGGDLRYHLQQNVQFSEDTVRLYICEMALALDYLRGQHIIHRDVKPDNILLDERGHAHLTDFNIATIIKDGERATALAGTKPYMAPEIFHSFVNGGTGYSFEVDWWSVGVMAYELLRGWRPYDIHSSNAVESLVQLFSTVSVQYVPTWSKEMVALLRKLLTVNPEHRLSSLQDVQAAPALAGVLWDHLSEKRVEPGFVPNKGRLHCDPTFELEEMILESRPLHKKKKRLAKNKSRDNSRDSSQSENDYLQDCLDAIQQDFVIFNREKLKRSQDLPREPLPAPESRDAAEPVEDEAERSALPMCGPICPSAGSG
Chain of FAK/PTK2 (Q05397 whole entry): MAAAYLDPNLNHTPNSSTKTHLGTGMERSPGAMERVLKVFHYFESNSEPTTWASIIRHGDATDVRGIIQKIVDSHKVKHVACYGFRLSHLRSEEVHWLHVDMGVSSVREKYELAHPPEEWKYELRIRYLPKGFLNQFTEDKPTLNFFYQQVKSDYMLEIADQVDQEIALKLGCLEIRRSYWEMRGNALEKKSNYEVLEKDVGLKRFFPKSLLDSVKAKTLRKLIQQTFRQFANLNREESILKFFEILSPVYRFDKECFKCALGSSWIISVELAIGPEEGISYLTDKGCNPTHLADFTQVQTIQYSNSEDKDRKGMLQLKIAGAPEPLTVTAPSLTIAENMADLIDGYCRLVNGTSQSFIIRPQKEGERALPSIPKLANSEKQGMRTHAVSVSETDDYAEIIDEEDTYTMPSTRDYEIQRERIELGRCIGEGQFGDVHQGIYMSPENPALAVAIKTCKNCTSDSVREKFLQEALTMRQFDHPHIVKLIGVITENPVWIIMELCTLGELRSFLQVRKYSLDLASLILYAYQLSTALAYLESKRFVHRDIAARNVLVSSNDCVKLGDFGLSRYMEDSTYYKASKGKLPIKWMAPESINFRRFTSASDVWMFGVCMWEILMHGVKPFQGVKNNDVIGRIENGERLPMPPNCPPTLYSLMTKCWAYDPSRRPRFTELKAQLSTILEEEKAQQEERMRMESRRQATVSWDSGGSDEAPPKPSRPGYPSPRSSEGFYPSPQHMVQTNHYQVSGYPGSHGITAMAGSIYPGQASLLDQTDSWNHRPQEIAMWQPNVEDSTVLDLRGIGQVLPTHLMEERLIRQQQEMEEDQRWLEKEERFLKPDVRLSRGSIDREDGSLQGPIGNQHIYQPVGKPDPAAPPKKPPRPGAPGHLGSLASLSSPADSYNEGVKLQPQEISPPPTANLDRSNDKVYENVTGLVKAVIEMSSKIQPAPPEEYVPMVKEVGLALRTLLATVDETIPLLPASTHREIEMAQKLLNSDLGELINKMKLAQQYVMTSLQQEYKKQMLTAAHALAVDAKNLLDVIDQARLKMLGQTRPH
Chain of ERK1 (P27361 whole entry): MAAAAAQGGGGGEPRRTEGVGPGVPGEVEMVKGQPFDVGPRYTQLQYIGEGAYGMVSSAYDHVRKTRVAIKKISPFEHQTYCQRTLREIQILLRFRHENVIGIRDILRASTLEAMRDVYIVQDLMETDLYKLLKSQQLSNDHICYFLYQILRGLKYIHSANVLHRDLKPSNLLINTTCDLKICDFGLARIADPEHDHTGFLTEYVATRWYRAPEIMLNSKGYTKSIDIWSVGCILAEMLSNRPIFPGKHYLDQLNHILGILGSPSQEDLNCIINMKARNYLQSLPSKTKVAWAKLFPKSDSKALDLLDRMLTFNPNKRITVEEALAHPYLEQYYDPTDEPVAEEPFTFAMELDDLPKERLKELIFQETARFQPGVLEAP
Chain of STK16 (O75716 whole entry): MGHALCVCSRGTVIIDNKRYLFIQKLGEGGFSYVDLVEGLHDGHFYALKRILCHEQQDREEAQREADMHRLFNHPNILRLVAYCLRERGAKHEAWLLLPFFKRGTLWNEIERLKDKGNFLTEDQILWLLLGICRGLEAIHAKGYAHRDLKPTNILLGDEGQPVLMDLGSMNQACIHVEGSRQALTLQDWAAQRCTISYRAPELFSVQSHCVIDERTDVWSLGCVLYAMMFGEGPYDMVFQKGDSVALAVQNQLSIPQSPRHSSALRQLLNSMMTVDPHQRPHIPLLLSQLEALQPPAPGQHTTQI
Chain of BRK (Q13882 whole entry): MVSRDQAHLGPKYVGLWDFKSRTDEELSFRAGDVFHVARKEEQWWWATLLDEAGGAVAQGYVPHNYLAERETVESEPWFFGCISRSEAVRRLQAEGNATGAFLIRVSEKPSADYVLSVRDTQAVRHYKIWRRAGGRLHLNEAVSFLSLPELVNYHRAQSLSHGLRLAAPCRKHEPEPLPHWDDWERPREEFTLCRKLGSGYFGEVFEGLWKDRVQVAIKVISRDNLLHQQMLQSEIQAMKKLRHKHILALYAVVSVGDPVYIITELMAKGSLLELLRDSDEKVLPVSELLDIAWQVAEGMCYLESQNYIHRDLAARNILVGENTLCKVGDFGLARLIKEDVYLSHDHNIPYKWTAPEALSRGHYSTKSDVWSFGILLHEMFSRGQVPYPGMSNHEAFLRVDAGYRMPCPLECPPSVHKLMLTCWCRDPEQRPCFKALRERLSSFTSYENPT
Chain of PLK2 (Q9NYY3 whole entry): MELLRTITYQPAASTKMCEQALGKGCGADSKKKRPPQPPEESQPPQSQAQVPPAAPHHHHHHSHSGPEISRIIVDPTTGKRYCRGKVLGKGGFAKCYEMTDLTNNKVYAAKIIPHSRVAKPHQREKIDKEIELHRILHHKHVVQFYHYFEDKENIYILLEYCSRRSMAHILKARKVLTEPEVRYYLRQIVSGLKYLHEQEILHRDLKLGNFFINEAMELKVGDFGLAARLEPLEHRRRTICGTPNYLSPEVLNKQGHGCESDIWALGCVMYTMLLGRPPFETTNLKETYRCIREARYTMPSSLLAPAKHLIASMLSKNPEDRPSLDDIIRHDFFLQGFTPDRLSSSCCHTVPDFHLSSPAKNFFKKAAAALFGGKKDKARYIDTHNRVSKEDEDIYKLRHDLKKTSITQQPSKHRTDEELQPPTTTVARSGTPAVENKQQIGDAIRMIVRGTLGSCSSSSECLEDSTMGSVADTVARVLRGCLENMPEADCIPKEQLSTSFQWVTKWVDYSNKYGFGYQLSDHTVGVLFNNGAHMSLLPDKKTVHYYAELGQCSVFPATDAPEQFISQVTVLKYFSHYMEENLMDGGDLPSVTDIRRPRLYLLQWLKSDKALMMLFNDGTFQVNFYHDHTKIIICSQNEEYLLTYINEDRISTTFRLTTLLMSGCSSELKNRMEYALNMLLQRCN

As for `COc1cc(-c2cncc(-c3ccc(N4CCN(C)CC4)cc3)c2C)cc(F)c1C(N)=O` [Compound 26a, 2-Fluoro-6-methoxy-4-(4-methyl-5-(4-(4-methylpiperazin-1-yl)phenyl)pyridin-3-yl)benzamide], the remaining activity at 1 µM on TSSK3/STK22C was 96.6%; on PKCa it was 89.8%; on EPHA7 it was 101%; at FAK/PTK2 it was 94%; at PLK2, 98.8%; on ERK1, 97.3%. The results for the remaining activity at 1 µM at GRK3 and at BRK were 94.4% and 58.3%, respectively. In addition, in the assay on BMPR2, the % enzyme activity at 1 μM is 89.1% and 88.4%. The “% enzyme activity” value on DYRK2 is listed as 95.06%; on STK32C/YANK3, 85.01%; at JNK1 it was 88.65%; at STK16 it was 103.69%. This compound returned a CYP inhibition at CYP2C9 above 50 µM.

As to `COc1cc(-c2cncc(-c3ccc(N4C[C@@H](C)N(C)[C@@H](C)C4)cc3)c2C)cc(F)c1C(N)=O` [Compound 26c, 2-Fluoro-6-methoxy-4-(4-methyl-5-(4-((3R,5S)-3,4,5-trimethylpiperazin-1-yl)phenyl)pyridin-3-yl)benzamide], the remaining activity at 1 µM at TSSK3/STK22C is 96.6%; at PKCa it was 90.3%; on EPHA7, 98.4%; on FAK/PTK2, 95.4%; on PLK2, 103%; on ERK1, 95.3%. Further, the remaining activity at 1 µM amounted to 96.1% at GRK3 and 73.9% at BRK. In the assay on BMPR2, the % enzyme activity at 1 μM is 104% and 100%. The “% enzyme activity” value on DYRK2 turned out to be 98.44%; on STK32C/YANK3 it was 91.96%; at JNK1 it was 85.74%; at STK16, 99.45%. This compound gave a CYP inhibition at CYP2C9 above 50 µM.

These data come from paper PMC8213057, “Targeting ALK2: An Open Science Approach to Developing Therapeutics for the Treatment of Diffuse Intrinsic Pontine Glioma” (Journal of Medicinal Chemistry, 2020).
